Results reported in patent EP4813463A2, “TYK2 INHIBITORS AND COMPOSITIONS AND METHODS THEREOF” (Lynk Pharmaceuticals Co. Ltd., priority 2023, dated 2024).

Biological target: T1, TYK2-JH2 domain (Homo sapiens, UniProt P29597)
T1 construct: JAK1-JH2 domain or TYK2-JH2 domain enzyme in assay buffer
Test: Binding activity test for JH2 domain of TYK2 (Tb-antibody/tracer FRET)
Details: JH2 domain enzyme; 60 min at 25°C, then 4°C overnight; read-out: TYK2 JH2 Binding IC50
Procedure: Binding Activity test for JH2 domain of JAK1 and TYK2 […] Add 8μL/well in echo source plate, echo will add 75nL/well with 3-fold serial dilution for 11 points in assay plate. 75nL DMSO for high control and low control. […] For low control, add 5μL/well assay buffer. And then spin down at 1000rpm and centrifuge for 30 seconds. After enzyme system prepared, add 5μL of Tb-antibody solution into each well of assay plate. Spin down at 1000 rpm and centrifuge for 30sec. After Tb-antibody added, also add 5μL of tracer into the assay plate. Spin down at 1000rpm and centrifuge for 30sec. Incubate for […] at 25°C firstly and then continue to incubate the plate at 4°C overnight. Read by envision in FRET mode. The Luminescence value was recorded by a multi-label reader Envision (PerkinElmer). […] Table 2. IC50 on JH2 domain activity (nM)

T1 sequence (P29597 589-875 limits assumed): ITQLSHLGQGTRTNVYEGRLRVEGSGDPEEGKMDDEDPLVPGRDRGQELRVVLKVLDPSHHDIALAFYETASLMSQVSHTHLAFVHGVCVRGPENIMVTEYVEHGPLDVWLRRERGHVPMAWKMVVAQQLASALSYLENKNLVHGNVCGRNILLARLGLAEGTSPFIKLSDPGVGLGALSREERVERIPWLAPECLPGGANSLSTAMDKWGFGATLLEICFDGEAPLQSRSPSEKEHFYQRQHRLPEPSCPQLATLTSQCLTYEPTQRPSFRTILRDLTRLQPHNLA

| SMILES | IC50 [nM] |
| --- | --- |
| [2H]C([2H])([2H])CC(=O)c1cnc(NC(=O)C2CC2)cc1Nc1nn(C)c2ccc(COC)c(OC)c12 [Example 132, N-(4-((4-methoxy-5-(methoxymethyl)-1-methyl-1H-indazol-3-yl)amino)-5-(propanoyl-3,3,3-d3)pyridin-2-yl)cyclopropanecarboxamide] | 0.174 |
| CCOC(c1ccc2c(c(Nc3cc(NC(=O)C4CC4)ncc3C(=O)OC)nn2C)c1OC)C(F)(F)F (racemic) [Example 106, Methyl 6-(cyclopropanecarboxamido)-4-((5-(1-ethoxy-2,2,2-trifluoroethyl)-4-methoxy-1-methyl-1H-indazol-3-yl)amino)nicotinate] | 1.31 |
| COC(=O)c1cnc(NC(=O)C2CC2)cc1Nc1ncn2ccc(C)c(OC)c12 [Example 103, Methyl 6-(cyclopropanecarboxamido)-4-((8-methoxy-7-methylimidazo[1,5-a]pyridin-1-yl)amino)nicotinate] | 5.84 |
| COC(=O)c1cnc(NC(=O)C2CC2)cc1Nc1cnn2ccc(C3CCCO3)c(OC)c12 (centres unmarked) [Example 99, Methyl 6-(cyclopropanecarboxamido)-4-((4-methoxy-5-(tetrahydrofuran-2-yl)pyrazolo[1,5-a]pyridin-3-yl)amino)nicotinate] | 1.79 |
| [2H]C([2H])([2H])OC(c1ccc2c(c(Nc3cc(NC(=O)C4CC4)ncc3C(=O)OC)nn2CCOC)c1OC)C(F)(F)F (single isomer, unassigned) [Example 157B, Methyl (R*)-6-(cyclopropanecarboxamido)-4-((4-methoxy-1-(2-methoxyethyl)-5-(2,2,2-trifluoro-1-methoxyethyl)-1H-indazol-3-yl)amino)nicotinate] | 1.41 |
| COC(=O)c1cnc(NC(=O)C2CC2)cc1Nc1ncn2ccc(C(OC)C(F)(F)F)c(OC)c12 (centres unmarked) [Example 110, Methyl 6-(cyclopropanecarboxamido)-4-((8-methoxy-7-(2,2,2-trifluoro-1-methoxyethyl)imidazo[1,5-a]pyridin-1-yl)amino)nicotinate] | 2.47 |
| COC(=O)c1cnc(NC(=O)C2CC2)cc1Nc1nn(C)c2ccc(C(OC)C(C)(F)F)c(OC)c12 (single isomer, unassigned) [Example 115B, Methyl (R*)-6-(cyclopropanecarboxamido)-4-((5-(2,2-difluoro-1-methoxypropyl)-4-methoxy-1-methyl-1H-indazol-3-yl)amino)nicotinate] | 1.22 |
| [2H]C([2H])([2H])NC(=O)c1cnc(NC(=O)C2CC2)cc1Nc1cnn2ccc(C)c(NC)c12 [Example 97, 6-(Cyclopropanecarbonylamino)-4-[[5-methyl-4-(methylamino)pyrazolo [1,5-a]pyridin-3-yl]amino]-N-(trideuteriomethyl)pyridine-3-carboxamide] | 2.37 |
| CCC(F)c1cnc(NC(=O)C2CC2)cc1Nc1nn(C)c2ccc([C@H](OC)C(F)(F)F)c(OC)c12 (stereo partly drawn) [Example 144, N-(5-(1-fluoropropyl)-4-((4-methoxy-1-methyl-5-((S)-2,2,2-trifluoro-1-methoxyethyl)-1H-indazol-3-yl)amino)pyridin-2-yl)cyclopropanecarboxamide] | 42.1 |
| CCOC(c1ccc2c(c(Nc3cc(NC(=O)C4CC4)ncc3C(=O)OC)nn2C)c1OC)C(F)(F)F (single isomer, unassigned) [Example 106A, Methyl (R*)-6-(cyclopropanecarboxamido)-4-((5-(1-ethoxy-2,2,2-trifluoroethyl)-4-methoxy-1-methyl-1H-indazol-3-yl)amino)nicotinate] | 4.31 |

The next lines start with the values.

| IC50 [nM] | SMILES |
| --- | --- |
| 0.09 | COC(=O)c1cnc(NC(=O)[C@@H]2C[C@@H]2F)cc1Nc1nn(C)c2ccc([C@H](OC)C(F)(F)F)c(OC)c12 [Example 76, Methyl 6-((1S,2S)-2-fluorocyclopropane-1-carboxamido)-4-((4-methoxy-1-methyl-5-((S)-2,2,2-trifluoro-1-methoxyethyl)-1H-indazol-3-yl)amino)nicotinate] |
| 0.747 | COC(=O)c1cnc(NC(=O)C2CC2)cc1Nc1nn(C)c2ccc(C(OC)C(F)(F)F)c(O)c12 (centres unmarked) [Example 149, Methyl 6-(cyclopropanecarboxamido)-4-((4-hydroxy-1-methyl-5-(2,2,2-trifluoro-1-methoxyethyl)-1H-indazol-3-yl)amino)nicotinate] |
| 0.891 | [2H]C([2H])([2H])CC(=O)c1cnc(NC(=O)C2CC2)cc1Nc1ncc2cnn(CC(C)(F)F)c2c1OC [Example 155, N-(4-((1-(2,2-difluoropropyl)-7-methoxy-1H-pyrazolo[4,3-c]pyridin-6-yl)amino)-5-(propanoyl-3,3,3-d3)pyridin-2-yl)cyclopropanecarboxamide] |
| 13.7 | COC(=O)c1cnc(NC(=O)C2CC2)cc1Nc1nn(COCC[Si](C)(C)C)c2ccc(C(OC)C(F)(F)F)c(OC)c12 (centres unmarked) [Example 104, Methyl 6-(cyclopropanecarboxamido)-4-((4-methoxy-5-(2,2,2-trifluoro-1-methoxyethyl)-1-((2-(trimethylsilyl)ethoxy)methyl)-1H-indazol-3-yl)amino)nicotinate] |
| 0.943 | COC(=O)c1cnc(NC(=O)C2CC2)cc1Nc1nn(C)c2ccc(C(OC)C(C)C)c(OC)c12 (centres unmarked) [Example 118, Methyl 6-(cyclopropanecarboxamido)-4-((4-methoxy-5-(1-methoxy-2-methylpropyl)-1-methyl-1H-indazol-3-yl)amino)nicotinate] |
| 9.8 | COC(=O)c1cnc(NC(=O)C2CC2)cc1Nc1nn(C)c2cccc(OC)c12 [Example 146, Methyl 6-(cyclopropanecarboxamido)-4-((4-methoxy-1-methyl-1H-indazol-3-yl)amino)nicotinate] |
| 0.405 | CCC(OC)c1ccc2c(c(Nc3cc(NC(=O)C4CC4)ncc3C(=O)OC)nn2C)c1OC (centres unmarked) [Example 121, Methyl 6-(cyclopropanecarboxamido)-4-((4-methoxy-5-(1-methoxypropyl)-1-methyl-1H-indazol-3-yl)amino)nicotinate] |
| 1.22 | COC(=O)c1cnc(NC(=O)C2CC2)cc1Nc1nn(C)c2cnc(C(OC)C(F)(F)F)c(OC)c12 (centres unmarked) [Example 138, Methyl 6-(cyclopropanecarbonylamino)-4-[[4-methoxy-1-methyl-5-(2,2,2-trifluoro-1-methoxy-ethyl)pyrazolo[3,4-c]pyridin-3-yl]amino]pyridine-3-carboxylate] |
| > 298 | COC(=O)c1c(Nc2nn(C)c3ccc(C(OC)C(F)(F)F)c(OC)c23)cc(NC(=O)C2CC2)nc1F (single isomer, unassigned) [Example 98A, Methyl (R*)-6-(cyclopropanecarboxamido)-2-fluoro-4-((4-methoxy-1-methyl-5-(2,2,2-trifluoro-1-methoxyethyl)-1H-indazol-3-yl)amino)nicotinate] |
| 1.52 | COC(=O)c1cnc(NC(=O)C2CC2)cc1Nc1nn(CC#N)c2ccc(C(OC)C(F)(F)F)c(OC)c12 (centres unmarked) [Example 134, Methyl 4-((1-(cyanomethyl)-4-methoxy-5-(2,2,2-trifluoro-1-methoxyethyl)-1H-indazol-3-yl)amino)-6-(cyclopropanecarboxamido)nicotinate] |

Same assay, conditions: read-out: TYK2 JH2 Binding IC50; JH2 domain enzyme; 60 min at 25°C, then 4°C overnight

| SMILES | IC50 [nM] |
| --- | --- |
| [2H]C([2H])([2H])O[C@@H](c1ccc2c(c(Nc3cc(NC(=O)C4CC4)ncc3C(=O)NC)nn2C)c1OC)C(F)(F)F [Example 151, (5)-6-(cyclopropanecarboxamido)-4-((4-methoxy-1-methyl-5-(2,2,2-trifluoro-1-(methoxy-d3)ethyl)-1H-indazol-3-yl)amino)-N-methylnicotinamide] | 0.053 |
| [2H]C([2H])([2H])OC(=O)c1cnc(NC(=O)C2CC2)cc1Nc1ncc2ccn(C([2H])([2H])C([2H])([2H])[2H])c2c1OC([2H])([2H])[2H] [Example 61, Methyl-d3 6-(cyclopropanecarboxamido)-4-((1-(ethyl-d5)-7-(methoxy-d3)-1H-pyrrolo[3,2-c]pyridin-6-yl)amino) nicotinate] | 1.36 |

Tested on: Ba/F3-FL-TYK2-P760L cells
Test: Anti-proliferative assay in engineered Ba/F3 cells (Cell-Titer Glo, 72 h)
Format: cell-based
Details: Mus musculus, BaF3, 72 h, 72 h compound treatment, concentration that causes 50% growth inhibition, read-out: Baf3-FL-T2P760L
Procedure: Dimerization domain of Tel protein fused with JAK kinase domain was permanently transduced into Ba/F3 cells, whose proliferation is dependent on JAK activity in the absence of IL-3 induction. These engineered Ba/F3-FL-TYK2-P760L cells were used to monitor JAK inhibitory activities of the compounds in the cellular. Ba/F3 cells were cultured in RPMI-1640 (Corning) containing 10% fetal bovine serum. Cells were seeded at 2000/well of white flat bottom 96-well plates. The well containing medium only was used as background control. After 24h growth, cells were treated with compounds. The test compounds were dissolved in DMSO to a stock concentration of 20 mM. 3-fold serially diluted compounds for 9 concentrations with top concentration of 20 µM was added into the each well. The final DMSO concentration was 0.1%. The cells continued to grow at 37°C in 5% CO2 for 72 h after compound treatment. The viability was measured by cellular ATP determination using the Cell-Titer Glo luciferase reagent (Promega). The Luminescence value was recorded by a multi-label reader Envision (PerkinElmer). Inhibition Rate was calculated relative to vehicle (DMSO) treated control wells using following formula: % Inhibition = 100−(RLU_compound−RLU_blank)/(RLU_control−RLU_blank) × 100% [formula] wherein • RLU_compound = the relative light unit of cells treated with test compounds • RLU_blank = the relative light unit of medium with DMSO only • RLU_control = the relative light unit of cells treated with DMSO only
Table 4. Ba/F3-FL-TYK2-P760L Cells IC50 Values of Exemplary Compounds

| IC50 [nM] | SMILES |
| --- | --- |
| 3.49 | COC(=O)c1cnc(NC(=O)[C@@H]2C[C@@H]2F)cc1Nc1nn(C)c2ccc([C@H](OC)C(F)(F)F)c(OC)c12 [Example 76, Methyl 6-((1S,2S)-2-fluorocyclopropane-1-carboxamido)-4-((4-methoxy-1-methyl-5-((S)-2,2,2-trifluoro-1-methoxyethyl)-1H-indazol-3-yl)amino)nicotinate] |
| 25.9 | [2H]C([2H])([2H])CC(=O)c1cnc(NC(=O)C2CC2)cc1Nc1nn(C)c2ccc(COC)c(OC)c12 [Example 132, N-(4-((4-methoxy-5-(methoxymethyl)-1-methyl-1H-indazol-3-yl)amino)-5-(propanoyl-3,3,3-d3)pyridin-2-yl)cyclopropanecarboxamide] |
| 14.5 | CCC(F)(F)c1cnc(NC(=O)C2CC2)cc1Nc1nc2ccc(N3CC(OC)C3)cn2n1 [Example 183, N-(5-(1,1-Difluoropropyl)-4-((6-(3-methoxyazetidin-1-yl)-[1,2,4]triazolo[1,5-a]pyridin-2-yl)amino)pyridin-2-yl)cyclopropanecarboxamide] |

Same assay, conditions: Mus musculus, BaF3, 72 h compound treatment, concentration that causes 50% growth inhibition, read-out: Baf3-FL-T2P760L

| SMILES | IC50 [nM] |
| --- | --- |
| [2H]C([2H])([2H])O[C@@H](c1ccc2c(c(Nc3cc(NC(=O)C4CC4)ncc3C(=O)NC)nn2C)c1OC)C(F)(F)F [Example 151, (5)-6-(cyclopropanecarboxamido)-4-((4-methoxy-1-methyl-5-(2,2,2-trifluoro-1-(methoxy-d3)ethyl)-1H-indazol-3-yl)amino)-N-methylnicotinamide] | 0.213 |
